Measurements taken from patent publication US20120309739A1, “AKT / PKB INHIBITORS” (ALMAC DISCOVERY LIMITED, priority 2009, published 2012).
Structures can show the parent of a compound that is named as a salt.

How the values were obtained:
Format in all cases: biochemical
AKT2 = biological target: T1, AKT2 (Homo sapiens, UniProt P31751); assay: AKT Kinase Assay (IMAP fluorescent polarisation) vs AKT2; settings: activated AKT2, FAM Crosstide substrate
T1 construct: purchased SignalChem
In short: (§1)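 Each activated AKT isoform, at a pre-determined linear-range concentration, was pre-incubated 45 min at room temperature with compound in a fourteen-point half-log series. ATP plus 5′FAM-Crosstide then reacted 1 h; IMAP binding reagent stopped it (1 h). Fluorescence polarisation (ex 485/em 528 nm) versus vehicle gave IC50 by non-linear regression.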

AKT1 = biological target: T2, AKT1 (Homo sapiens, UniProt P31749); assay: AKT Kinase Assay (IMAP fluorescent polarisation) vs AKT1; settings: activated AKT1, FAM Crosstide substrate
T2 construct: purchased SignalChem
In short: as §1

AKT3 = biological target: T3, AKT3 (Homo sapiens, UniProt Q9Y243); assay: AKT Kinase Assay (IMAP fluorescent polarisation) vs AKT3; settings: activated AKT3, FAM Crosstide substrate
T3 construct: purchased SignalChem
In short: as §1

T3 sequence (Q9Y243 whole entry): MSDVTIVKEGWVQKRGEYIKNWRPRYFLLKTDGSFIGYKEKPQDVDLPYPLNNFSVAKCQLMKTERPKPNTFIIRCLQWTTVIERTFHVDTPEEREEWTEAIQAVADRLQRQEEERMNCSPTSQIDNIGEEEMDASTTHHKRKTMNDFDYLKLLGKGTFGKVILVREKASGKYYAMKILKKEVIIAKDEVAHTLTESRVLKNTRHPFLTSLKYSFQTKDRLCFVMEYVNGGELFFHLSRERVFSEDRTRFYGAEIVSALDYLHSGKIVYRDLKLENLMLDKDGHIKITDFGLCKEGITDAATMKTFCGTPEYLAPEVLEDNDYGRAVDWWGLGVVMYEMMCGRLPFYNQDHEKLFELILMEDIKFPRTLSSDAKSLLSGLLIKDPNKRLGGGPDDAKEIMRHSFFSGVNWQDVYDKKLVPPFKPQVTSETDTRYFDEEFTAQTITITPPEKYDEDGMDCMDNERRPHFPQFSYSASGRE
T2 sequence (P31749 whole entry): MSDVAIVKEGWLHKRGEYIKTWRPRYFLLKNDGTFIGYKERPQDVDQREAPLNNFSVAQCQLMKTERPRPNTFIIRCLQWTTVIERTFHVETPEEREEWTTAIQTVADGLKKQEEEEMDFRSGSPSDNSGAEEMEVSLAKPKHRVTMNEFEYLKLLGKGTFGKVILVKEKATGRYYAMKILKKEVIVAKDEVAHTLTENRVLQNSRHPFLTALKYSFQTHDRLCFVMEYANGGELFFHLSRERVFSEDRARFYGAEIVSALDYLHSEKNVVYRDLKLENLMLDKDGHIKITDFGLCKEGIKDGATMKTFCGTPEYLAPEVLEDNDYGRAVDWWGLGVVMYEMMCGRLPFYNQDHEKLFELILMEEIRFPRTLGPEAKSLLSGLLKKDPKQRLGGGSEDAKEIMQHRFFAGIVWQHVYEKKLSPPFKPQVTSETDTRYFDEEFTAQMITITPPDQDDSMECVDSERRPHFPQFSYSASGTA
T1 sequence (P31751 whole entry): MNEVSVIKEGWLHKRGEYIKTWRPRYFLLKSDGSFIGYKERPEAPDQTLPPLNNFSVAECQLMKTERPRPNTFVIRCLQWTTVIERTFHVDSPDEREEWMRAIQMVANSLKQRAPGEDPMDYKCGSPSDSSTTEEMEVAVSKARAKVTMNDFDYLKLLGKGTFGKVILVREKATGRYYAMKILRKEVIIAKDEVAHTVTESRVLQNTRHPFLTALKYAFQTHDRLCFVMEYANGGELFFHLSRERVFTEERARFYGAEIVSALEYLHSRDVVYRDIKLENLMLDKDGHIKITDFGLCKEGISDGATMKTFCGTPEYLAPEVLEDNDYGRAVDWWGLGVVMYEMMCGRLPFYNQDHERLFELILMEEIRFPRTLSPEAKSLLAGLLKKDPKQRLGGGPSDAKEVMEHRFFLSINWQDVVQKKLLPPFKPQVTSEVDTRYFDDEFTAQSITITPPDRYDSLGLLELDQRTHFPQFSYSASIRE

Row | Structure (SMILES) | IC50 (AKT2) | IC50 (AKT1) | IC50 (AKT3)
1 | NC1(c2ccc(-c3oc4nc(NCCO)nc(OCCF)c4c3-c3ccccc3)cc2)CCC1 [Example 111, 2-((6-(4-(1-Aminocyclobutyl)phenyl)-4-(2-fluoroethoxy)-5-phenylfuro[2,3-d]pyrimidin-2-yl)amino)ethanol] | 0.1 to 1 µM | ≤ 0.1 µM | 1 to 10 µM
2 | Cn1cc(-c2ccn[nH]2)c2oc(-c3ccc(C4(N)CCC4)cc3)c(-c3ccccc3)c2c1=O [Example 116, 2-(4-(1-Aminocyclobutyl)phenyl)-5-methyl-3-phenyl-7-(1H-pyrazol-5-yl)furo[3,2-c]pyridin-4(5H)-one] | 0.1 to 1 µM | ≤ 0.1 µM | > 10 µM
3 | NC1(c2ccc(-c3oc4ncccc4c3-c3ccccc3)cc2)CCC1 [Example 19, 1-(4-(3-Phenylfuro[2,3-b]pyridin-2-yl)phenyl)cyclobutanamine] | > 10 µM | > 10 µM | > 10 µM
4 | Cc1cnc2oc(-c3ccc(C4(N)CCC4)cc3)c(-c3ccccc3)c2n1 [Example 149, 1-(4-(2-Methyl-7-phenylfuro[2,3-b]pyrazin-6-yl)phenyl)cyclobutanamine] | 1 to 10 µM | 0.1 to 1 µM | > 10 µM
5 | NC1(c2ccc(-c3oc4c(=O)[nH]ccc4c3-c3ccccc3)cc2)CCC1 [Example 128, 2-(4-(1-Aminocyclobutyl)phenyl)-3-phenylfuro[2,3-d]pyridin-7(6H)-one] | 1 to 10 µM | 0.1 to 1 µM | 1 to 10 µM
6 | NC1(c2ccc(-c3oc4ncc(Cl)nc4c3-c3ccccc3)cc2)CCC1 [Example 134, 1-(4-(2-Chloro-7-phenylfuro[2,3-b]pyrazin-6-yl)phenyl)cyclobutanamine] | 1 to 10 µM | 0.1 to 1 µM | > 10 µM
7 | CN(CCO)c1nc2oc(-c3ccc(C4(N)CCC4)cc3)c(-c3ccccc3)c2c(=O)n1C [Example 84, 6-(4-(1-Aminocyclobutyl)phenyl)-2-((2-hydroxyethyl)(methyl)amino)-3-methyl-5-phenylfuro[2,3-d]pyrimidin-4(3H)-one] | 0.1 to 1 µM | 1 to 10 µM | > 10 µM
8 | COc1nc(NCCN(C)C)nc2oc(-c3ccc(C4(N)CCC4)cc3)c(-c3ccccc3)c12 [Example 14, N^1-(6-(4-(1-Aminocyclobutyl)phenyl)-4-methoxy-5-phenylfuro[2,3-d]pyrimidin-2-yl)-N^2,N^2-dimethylethane-1,2-diamine] | 0.1 to 1 µM | 0.1 to 1 µM | 1 to 10 µM
9 | CSc1nc2oc(-c3ccc(C4(N)CCC4)cc3)c(-c3ccccc3)c2c(=O)n1CC(N)=O [Example 97, 2-(6-(4-(1-Aminocyclobutyl)phenyl)-2-(methylthio)-4-oxo-5-phenylfuro[2,3-d]pyrimidin-3(4H)-yl)acetamide] | 0.1 to 1 µM | 0.1 to 1 µM | > 10 µM
10 | CSc1nc(C(F)(F)F)c2c(-c3ccccc3)c(-c3ccc(C4(N)CCC4)cc3)oc2n1 [Example 74, 1-(4-(2-(Methylthio)-5-phenyl-4-(trifluoromethyl)furo[2,3-d]pyrimidin-6-yl)phenyl)cyclobutanamine hydrochloride] | 1 to 10 µM | 1 to 10 µM | > 10 µM
11 | NC1(c2ccc(-c3oc4nc(N5CCNCC5)ncc4c3-c3ccccc3)cc2)CCC1 [Example 53, 1-(4-(5-Phenyl-2-(piperazin-1-yl)furo[2,3-d]pyrimidin-6-yl)phenyl)cyclobutanamine] | 0.1 to 1 µM | 0.1 to 1 µM | > 10 µM
12 | NC1(c2ccc(-c3c(-c4ccccc4)oc4cccnc34)cc2)CCC1 [Example 23, 1-(4-(2-Phenylfuro[3,2-b]pyridin-3-yl)phenyl)cyclobutanamine] | > 10 µM | > 10 µM | > 10 µM
13 | COc1ncc(Br)c2c(-c3ccccc3)c(-c3ccc(C4(N)CCC4)cc3)oc12 [Example 132, 1-(4-(4-Bromo-7-methoxy-3-phenylfuro[2,3-c]pyridin-2-yl)phenyl)cyclobutanamine] | 0.1 to 1 µM | 0.1 to 1 µM | > 10 µM
14 | NC1(c2ccc(-c3sc4nc[nH]c(=O)c4c3-c3ccccc3)cc2)CCC1 [Example 16, 6-(4-(1-Aminocyclobutyl)phenyl)-5-phenylthieno[2,3-d]pyrimidin-4(3H)-one] | 0.1 to 1 µM | 1 to 10 µM | 1 to 10 µM
15 | Cn1c(N2CCC(O)CC2)nc2oc(-c3ccc(C4(N)CCC4)cc3)c(-c3ccccc3)c2c1=O [Example 59, 6-(4-(1-Aminocyclobutyl)phenyl)-2-(4-hydroxypiperidin-1-yl)-3-methyl-5-phenylfuro[2,3-d]pyrimidin-4(3H)-one hydrochloride] | ≤ 0.1 µM | 0.1 to 1 µM | 1 to 10 µM
16 | CNc1nc2oc(-c3ccc(C4(N)CCC4)cc3)c(-c3ccccc3)c2c(=O)n1CCOC [Example 69, 6-(4-(1-Aminocyclobutyl)phenyl)-3-(2-methoxyethyl)-2-(methylamino)-5-phenylfuro[2,3-d]pyrimidin-4(3H)-one, HCl] | 0.1 to 1 µM | 1 to 10 µM | > 10 µM
17 | Cn1cc(-c2cn(CCF)c(=O)c3c(-c4ccccc4)c(-c4ccc(C5(N)CCC5)cc4)oc23)cn1 [Example 113, 2-(4-(1-Aminocyclobutyl)phenyl)-5-(2-fluoroethyl)-7-(1-methyl-1H-pyrazol-4-yl)-3-phenylfuro[3,2-d]pyridin-4(5H)-one] | 0.1 to 1 µM | 0.1 to 1 µM | 1 to 10 µM
18 | COCCn1c(SC)nc2oc(-c3ccc(C4(N)CCC4)cc3)c(-c3ccccc3)c2c1=O [Example 67, 6-(4-(1-Aminocyclobutyl)phenyl)-3-(2-methoxyethyl)-2-(methylthio)-5-phenylfuro[2,3-d]pyrimidin-4(3H)-one, HCl] | ≤ 0.1 µM | 0.1 to 1 µM | 0.1 to 1 µM
19 | NC1(c2ccc(-c3oc4ncc(-c5ccccn5)nc4c3-c3ccccc3)cc2)CCC1 [Example 141, 1-(4-(7-Phenyl-2-(pyridin-2-yl)furo[2,3-b]pyrazin-6-yl)phenyl)cyclobutanamine] | 1 to 10 µM | 1 to 10 µM | > 10 µM
20 | CNc1nc(SC)nc2oc(-c3ccc(C4(N)CCC4)cc3)c(-c3ccccc3)c12 [Example 68, 6-(4-(1-Aminocyclobutyl)phenyl)-N-methyl-2-(methylthio)-5-phenylfuro[2,3-d]pyrimidin-4-amine, HCl] | 0.1 to 1 µM | 0.1 to 1 µM | 0.1 to 1 µM
21 | N#Cc1cccc2c(-c3ccccc3)c(-c3ccc(C4(N)CCC4)cc3)oc12 [Example 8, 2-(4-(1-Aminocyclobutyl)phenyl)-3-phenylbenzofuran-7-carbonitrile] | 1 to 10 µM | 1 to 10 µM | > 10 µM
22 | CNc1ncc2c(-c3ccccc3)c(-c3ccc(C4(N)CCC4)cc3)oc2n1 [Example 55, 6-(4-(1-Aminocyclobutyl)phenyl)-N-methyl-5-phenylfuro[2,3-d]pyrimidin-2-amine] | 0.1 to 1 µM | ≤ 0.1 µM | > 10 µM
23 | NC1(c2ccc(-c3oc4cc[nH]c(=O)c4c3-c3ccccc3)cc2)CCC1 [Example 18, 2-(4-(1-Aminocyclobutyl)phenyl)-3-phenylfuro[3,2-c]pyridin-4(5H)-one] | 1 to 10 µM | 0.1 to 1 µM | > 10 µM
